Test results taken from PubChem BioAssay AID1919014 (Molecular Pharmacology Branch, DTP, NCI, 2023).
pIC50: −log10 of the molar value. Values joined by “and” are separate entries in the source; they are usually repeats but may differ in a detail not shown here. Identical values can stand only once.

Test system: NCI-H1341 complex spheroids, percent test/control
Experiment: Anticancer human tumor NCI-H1341 cell line growth inhibition [AhR];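 also: spheroids exposed to agents for seven days before readout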
Conditions: for viability, T/C: stronger effect = lower value
How it was run: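 Agents were dosed in half-log steps down from roughly clinical Cmax, or from 10 microM where Cmax was unknown, alone and with AhR antagonists. Read-out: percent test/control growth of tumor spheroids containing HUVEC and MSC stromal cells.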

[1] = curve of first compound, second compound 0.1 µM
[2] = curve of first compound, second compound 0.316 µM
[3] = curve of first compound, second compound 1 µM
[4] = curve of first compound, second compound 3.16 µM
[5] = curve of first compound, second compound 10 µM
[6] = second compound 0.1 µM, first compound 0.000316 µM
[7] = second compound 0.1 µM, first compound 0.001 µM
[8] = second compound 0.1 µM, first compound 0.00316 µM
[9] = second compound 0.1 µM, first compound 0.01 µM
[10] = second compound 0.1 µM, first compound 0.0316 µM
[11] = second compound 0.1 µM, first compound 0.1 µM
[12] = second compound 0.316 µM, first compound 0.000316 µM
[13] = second compound 0.316 µM, first compound 0.001 µM
[14] = second compound 0.316 µM, first compound 0.00316 µM
[15] = second compound 0.316 µM, first compound 0.01 µM
[16] = second compound 0.316 µM, first compound 0.0316 µM
[17] = second compound 0.316 µM, first compound 0.1 µM
[18] = second compound 1 µM, first compound 0.000316 µM
[19] = second compound 1 µM, first compound 0.001 µM
[20] = second compound 1 µM, first compound 0.00316 µM
[21] = second compound 1 µM, first compound 0.01 µM
[22] = second compound 1 µM, first compound 0.0316 µM
[23] = second compound 1 µM, first compound 0.1 µM
[24] = second compound 3.16 µM, first compound 0.000316 µM
[25] = second compound 3.16 µM, first compound 0.001 µM
[26] = second compound 3.16 µM, first compound 0.00316 µM
[27] = second compound 3.16 µM, first compound 0.01 µM
[28] = second compound 3.16 µM, first compound 0.0316 µM
[29] = second compound 3.16 µM, first compound 0.1 µM
[30] = second compound 10 µM, first compound 0.000316 µM
[31] = second compound 10 µM, first compound 0.001 µM
[32] = second compound 10 µM, first compound 0.00316 µM
[33] = second compound 10 µM, first compound 0.01 µM
[34] = second compound 10 µM, first compound 0.0316 µM
[35] = second compound 10 µM, first compound 0.1 µM

Compound	pIC50 [1]	pIC50 [2]	pIC50 [3]	pIC50 [4]	pIC50 [5]	viability, T/C [6] [%]	viability, T/C [7] [%]	viability, T/C [8] [%]	viability, T/C [9] [%]	viability, T/C [10] [%]	viability, T/C [11] [%]	viability, T/C [12] [%]	viability, T/C [13] [%]	viability, T/C [14] [%]	viability, T/C [15] [%]	viability, T/C [16] [%]	viability, T/C [17] [%]	viability, T/C [18] [%]	viability, T/C [19] [%]	viability, T/C [20] [%]	further results
CC[C@@]1(O)C(=O)OCc2c1cc1n(c2=O)Cc2cc3c(CN(C)C)c(O)ccc3nc2-1 + Cc1cncc(-c2nc(NCCc3c[nH]c4ccccc34)c3ncn(C(C)C)c3n2)c1	7.63	7.67	7.73	8.10	> 9.50	90.4	81.1	69.8	64	42.5	38.4	67.3	76.8	75.5	63.2	43.5	38.2	68.8	76.1	77.2	viability, T/C [21]: 60.8%; viability, T/C [22]: 40.9%; viability, T/C [23]: 32.2%; viability, T/C [24]: 72.9%; viability, T/C [25]: 74.8%; viability, T/C [26]: 66.6%; viability, T/C [27]: 45.7%; viability, T/C [28]: 37.1%; viability, T/C [29]: 35.5%; viability, T/C [30]: 25.8%; viability, T/C [31]: 24.8%; viability, T/C [32]: 24.9%; viability, T/C [33]: 18%; viability, T/C [34]: 19.2%; viability, T/C [35]: 15.1%
Cn1ncnc1C1c2n[nH]c(=O)c3cc(F)cc(c23)NC1c1ccc(F)cc1 (configuration not stated) + Cc1cncc(-c2nc(NCCc3c[nH]c4ccccc34)c3ncn(C(C)C)c3n2)c1	< 7.00	< 7.00	< 7.00	< 7.00	> 9.50	99.9	98.5	93.4	89.3	80.6	69.1	87	86.8	89.2	91.7	66.8	73.4	78.2	79.8	88.2	viability, T/C [21]: 95.6%; viability, T/C [22]: 80.6%; viability, T/C [23]: 64.5%; viability, T/C [24]: 73.9%; viability, T/C [25]: 75.6%; viability, T/C [26]: 75.6%; viability, T/C [27]: 72.6%; viability, T/C [28]: 77.2%; viability, T/C [29]: 62.5%; viability, T/C [30]: 38.7%; viability, T/C [31]: 40.6%; viability, T/C [32]: 43.9%; viability, T/C [33]: 42.1%; viability, T/C [34]: 36.1%; viability, T/C [35]: 40.2%
CCN(c1cc(-c2ccc(CN3CCOCC3)cc2)cc(C(=O)NCc2c(C)cc(C)[nH]c2=O)c1C)C1CCOCC1	–	–	–	–	–	–	–	–	–	–	–	–	–	–	–	–	–	–	–	–	viability, T/C (compound 0.00949 µM): 94.3% and 103% and 94.7%; viability, T/C (compound 0.03 µM): 84.3% and 90.7% and 97%; viability, T/C (compound 0.0949 µM): 101% and 87.8% and 83%; viability, T/C (compound 0.3 µM): 85% and 87.6% and 82.2%; viability, T/C (compound 0.949 µM): 79.2% and 119% and 90.2%; viability, T/C (compound 3 µM): 90.2% and 89.3% and 73.7%; pIC50 (curve of compound): < 5.52
